Columns and labels:
human recombinant cRAF = human recombinant cRAF (Homo sapiens, UniProt P04049); test: cRAF Inhibition Assay (TR-FRET); assay type: biochemical
Procedure: (§1) Activity of human recombinant cRAF were assessed in vitro using time-resolved fluorescence resonance energy transfer (TR-FRET) assay. The assay was performed according to the kit instructions. Briefly, the cRAF enzyme (BPS Bioscience, cat #40008) was diluted to 0.027 ng/μL using the 1× kinase buffer A (Life Tech, cat #PV6135, 5× dilution with H2O); the Fluorescein labeled-MAP2K1 (Life Tech, Cat #PV4812) was diluted to 0.5 μM; ATP (Life Tech, cat #PV3227) was diluted to 20 μM; 2.54, of each diluted reagent was added to a 384-well plate (PerkinElmer, ProxiPlate-384 Plus, 6008280) and mixed together; 2.54, serial diluted compound were added into the mixture. 104, 400-fold diluted LanthaScreen Tb-pMAP2K1 (pSer217/221) antibody (Life Tech, cat #PV4817) was then added to each kinase reaction. The reactions were incubated at Room Temperature for 1 hour. The plate was then read on PHERAstar FSX using 340/490/520 module. Inhibition data were calculated by comparison to vehicle control wells for 0% inhibition and non-stimulated control wells for 100% inhibition. Dose response curves were then generated to determine the concentration required to suppress 50% of enzymatic response (IC50) as derived by non-linear regression analysis using GraphPad Prism.

human recombinant BRAF = target: T1, human recombinant BRAF (Homo sapiens, UniProt P15056); test: BRAF^WT Inhibition Assay (TR-FRET); assay type: biochemical
T1 construct: purchased BPS Bioscience 40065
Procedure: as §1, with “BRAF” for “cRAF”, “#40065)” for “#40008)”

[1] = target: T2, human recombinant V600E mutant BRAF (Homo sapiens, UniProt P15056, V600E); test: BRAF^V600E Inhibition Assay (TR-FRET); assay type: biochemical
T2 construct: purchased BPS Bioscience 40533
Procedure: Activity of human recombinant V600E mutant BRAF were assessed in vitro using time-resolved fluorescence resonance energy transfer (TR-FRET) assay. The assay was performed according to the kit instructions. Briefly, the V600E mutant BRAF enzyme (BPS Bioscience, cat #40533) was diluted to 0.027 ng/μL using the 1× kinase buffer A (Life Tech, cat #PV6135, 5× dilution with H2O); the Fluorescein labeled-MAP2K1 (Life Tech, Cat #PV4812) was diluted to 0.5 μM; ATP (Life Tech, cat #PV3227) was diluted to 20 μM; 2.5 μl of each diluted reagent was added to a 384-well (PerkinElmer, ProxiPlate-384 Plus, 6008280) plate and mixed together; 2.54, serial diluted compounds were added into the mixture. 104, 400-fold diluted LanthaScreen Tb-pMAP2K1 (pSer217/221) antibody (Life Tech, cat #PV4817) was then added to each kinase reaction. The reactions were incubated at Room Temperature for 1 hour. The plate was then read on PHERAstar FSX using 340/490/520 module. Inhibition data were calculated by comparison to vehicle control wells for 0% inhibition and non-stimulated control wells for 100% inhibition. Dose response curves were then generated to determine the concentration required to suppress 50% of enzymatic response (IC50) as derived by non-linear regression analysis using GraphPad Prism.

[2] = tested on: NCI-H358 (KRAS^G12C) non-small cell lung cancer cell; test: NCI-H358 Cancer Cell Growth Inhibition Assay (CellTiter-Glo); assay type: cell-based, human; details: for GI50: Homo sapiens, 72 h, NCI-H358 cells, incubated for 3 days, CellTiter-Glo
Procedure: Activity of human NCI-H358 (KRAS^G12C) non-small cell lung cancer cell growth inhibition was assessed in vitro using CellTiter-Glo® Luminescent Cell Viability Assay. The assay was performed according to the kit instructions (Promega, cat #G7570). Briefly, NCI-H358 cells (ATCC, #CRL-5807) were seeded in 96-well plates at a density of 2,500 cells/well in and cells were cultured overnight in a humidified, 5% CO2 cell culture incubator at 37° C. 10 μL serial diluted compounds were added into each cell-culture well and incubated for 3 days. 100 μL CellTiter-Glo® Reagent was added into each well. The reactions were incubated at Room Temperature for 10 minutes, and luminescence signals were recorded on a Tecan Luminescence Plate Reader. Inhibition data were calculated by comparison to vehicle control wells for 0% inhibition and non-stimulated control wells for 100% inhibition. Dose response curves were then generated to determine the concentration required to suppress 50% of cellular growth response (GI50) as derived by non-linear regression analysis using GraphPad Prism.

[3] = tested on: A375 (BRAF^V600E) malignant melanoma cell; test: A375 Cell Growth Inhibition Assay (CellTiter-Glo); assay type: cell-based, human; details: for GI50: Homo sapiens, A-375, 72 h, A375 cells, incubated for 3 days, CellTiter-Glo
Procedure: Activity of human A375 (BRAF^V600E) malignant melanoma cell growth inhibition was assessed in vitro using CellTiter-Glo® Luminescent Cell Viability Assay. The assay was performed according to the kit instructions (Promega, cat #G7570). Briefly, A375 cells (ATCC, #CRL-1619™) were seeded in 96-well plates at a density of 2,500 cells/well in 90 and cells were cultured overnight in a humidified, 5% CO2 cell culture incubator at 37° C. 10 μL serial diluted compounds were added into each cell-culture well and incubated for 3 days. […] Reagent was added into each well. The reactions were incubated at Room Temperature for 10 minutes, and luminescence signals were recorded on a Tecan Luminescence Plate Reader. Inhibition data were calculated by comparison to vehicle control wells for 0% inhibition and non-stimulated control wells for 100% inhibition. Dose response curves were then generated to determine the concentration required to suppress 50% of cellular growth response (GI50) as derived by non-linear regression analysis using GraphPad Prism.

[4] = tested on: Calu6 (KRAS^Q16K) cancer cell; test: Calu6 Cancer Cell Growth Inhibition Assay (CellTiter-Glo); assay type: cell-based, human; details: for GI50: Homo sapiens, Calu-6, 72 h, Calu6 cells, incubated for 3 days, CellTiter-Glo
Procedure: Activity of human Calu6 (KRAS^Q16K) cancer cell growth inhibition was assessed in vitro using CellTiter-Glo® Luminescent Cell Viability Assay. The assay was performed according to the kit instructions (Promega, cat #G7570). Briefly, Calu6 cells (ATCC, #HTB-56™) were seeded in 96-well plates at a density of 2,500 cells/well in 90 and cells were cultured overnight in a humidified, 5% CO2 cell culture incubator at 37° C. 10 μL serial diluted compounds were added into each cell-culture well and incubated for 3 days. 100 μL CellTiter-Glo® Reagent was added into each well. The reactions were incubated at Room Temperature for 10 minutes, and luminescence signals were recorded on a Tecan Luminescence Plate Reader. Inhibition data were calculated by comparison to vehicle control wells for 0% inhibition and non-stimulated control wells for 100% inhibition. Dose response curves were then generated to determine the concentration required to suppress 50% of cellular growth response (GI50) as derived by non-linear regression analysis using GraphPad Prism.

RAF Kinase = details: background statement on the reference compound; cited from earlier work

T1 sequence (P15056 whole entry): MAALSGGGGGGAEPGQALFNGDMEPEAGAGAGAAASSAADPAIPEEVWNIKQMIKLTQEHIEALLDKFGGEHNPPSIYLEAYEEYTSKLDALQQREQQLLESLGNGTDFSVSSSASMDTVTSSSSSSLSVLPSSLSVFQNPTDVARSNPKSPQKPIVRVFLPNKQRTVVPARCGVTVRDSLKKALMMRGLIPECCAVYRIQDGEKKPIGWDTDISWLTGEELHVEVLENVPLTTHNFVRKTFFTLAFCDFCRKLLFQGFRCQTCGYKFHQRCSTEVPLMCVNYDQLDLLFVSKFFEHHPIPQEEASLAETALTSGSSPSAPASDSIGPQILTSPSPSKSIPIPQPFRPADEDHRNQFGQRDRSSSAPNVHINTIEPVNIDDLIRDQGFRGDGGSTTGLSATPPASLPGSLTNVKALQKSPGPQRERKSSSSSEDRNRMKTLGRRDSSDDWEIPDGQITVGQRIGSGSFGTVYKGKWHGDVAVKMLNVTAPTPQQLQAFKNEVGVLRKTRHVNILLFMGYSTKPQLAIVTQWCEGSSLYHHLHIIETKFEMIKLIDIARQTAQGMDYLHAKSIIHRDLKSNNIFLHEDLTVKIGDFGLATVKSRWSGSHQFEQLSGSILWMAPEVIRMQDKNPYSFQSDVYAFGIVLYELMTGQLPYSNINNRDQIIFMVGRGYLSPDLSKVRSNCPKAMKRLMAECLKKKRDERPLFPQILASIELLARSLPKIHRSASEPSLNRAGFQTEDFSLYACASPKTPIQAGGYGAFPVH
T2 sequence (P15056 whole entry V600E): as the sequence (P15056 whole entry) above, with V600E counted along it
human recombinant cRAF, sequence (P04049 whole entry Y340D/Y341D, form open): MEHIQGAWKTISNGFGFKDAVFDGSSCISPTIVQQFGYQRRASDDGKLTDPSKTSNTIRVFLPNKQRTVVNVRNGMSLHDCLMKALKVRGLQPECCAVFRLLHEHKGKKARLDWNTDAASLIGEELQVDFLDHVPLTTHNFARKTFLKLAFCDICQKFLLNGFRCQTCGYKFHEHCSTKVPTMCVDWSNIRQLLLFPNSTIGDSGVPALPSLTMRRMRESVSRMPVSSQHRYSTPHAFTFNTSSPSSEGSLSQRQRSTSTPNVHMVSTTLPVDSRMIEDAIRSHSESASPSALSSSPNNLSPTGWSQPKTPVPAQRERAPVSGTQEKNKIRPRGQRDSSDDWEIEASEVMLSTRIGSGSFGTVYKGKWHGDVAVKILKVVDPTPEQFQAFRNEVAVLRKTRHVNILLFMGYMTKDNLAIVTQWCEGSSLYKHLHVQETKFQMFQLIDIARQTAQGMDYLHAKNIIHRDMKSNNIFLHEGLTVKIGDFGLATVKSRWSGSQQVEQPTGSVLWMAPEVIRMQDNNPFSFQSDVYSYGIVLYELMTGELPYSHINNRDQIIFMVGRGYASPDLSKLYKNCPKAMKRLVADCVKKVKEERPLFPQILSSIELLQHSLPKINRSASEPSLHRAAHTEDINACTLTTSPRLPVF

Compound | IC50 (human recombinant cRAF) [nM] | IC50 (human recombinant BRAF) [nM] | IC50 [1] [nM] | cellular potency, H358 ([2]; H358 cancer cell line) | cell growth inhibition in H358 cancer line compared to LXH254 ([2]; H358 cancer line, compared to LXH254) | GI50 [2] [nM] | cellular potency, A375 ([3]; A375 cancer cell line) | GI50 [3] [nM] | cellular potency, Calu6 ([4]; Calu6 cancer cell line) | GI50 [4] [nM] | potency for bRAF and cRAF (RAF Kinase)
Cc1ccc(NC(=O)c2ccc3c(c2)OC(F)(F)O3)cc1-c1cc(OCCO)nc(N2CCOCC2)c1 [Example 1, 2,2-difluoro-N-(3-(2-(2-hydroxyethoxy)-6-morpholinopyridin-4-yl)-4-methylphenyl)benzo[d][1,3]dioxole-5-carboxamide] | 15 | 87 | 32.5 | excellent cellular potency | better or similar cell growth inhibition | 480 | excellent cellular potency | 150 | excellent cellular potency | 64 | –
Cc1ccc(NC(=O)c2ccnc(C(F)(F)F)c2)cc1-c1cc(OCCO)nc(N2CCOCC2)c1 [LXH254, reference compound] | 13 | 38 | 43 | – | – | 3000 | – | 890 | – | 920 | nanomolar potency
